Test results reported in PubChem BioAssay (NCI).
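Interpolation was linear, between the two tested concentrations surrounding the appropriate level; five concentrations were tested over 48 hours in 96-well plates. TGI: total growth inhibition.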 Where a SMILES comes first, the peptide text is derived from it. Bridges are numbered along the chain shown (N, C = ends). [ ]: non-standard residue; d: D form. The star is where a group is joined. ξ: configuration not given here. Cbz = O=C(OCc1ccccc1)*; ξD = NC(CC(=O)O)C(=O)O; Ac3c = NC1(C(=O)O)CC1; Boc = CC(C)(C)OC(=O)*; OtBu = CC(C)(C)O*

What was measured:
Test in all cases: DTP human tumour cell line panel, 48 h
786-0 renal = test system: 786-0 renal
CCRF-CEM leukemia = test system: CCRF-CEM leukemia
DU-145 prostate = test system: DU-145 prostate
HCT-116 colon = test system: HCT-116 colon
HCT-15 colon = test system: HCT-15 colon
HOP-92 NSCLC = test system: HOP-92 NSCLC
KM12 colon = test system: KM12 colon
NCI-H226 lung = test system: NCI-H226 lung
NCI-H23 lung = test system: NCI-H23 lung
SK-MEL-28 melanoma = test system: SK-MEL-28 melanoma
UO-31 renal = test system: UO-31 renal

SMILES | TGI (786-0 renal) | TGI (CCRF-CEM leukemia) | TGI (DU-145 prostate) | TGI (HCT-116 colon) | TGI (HCT-15 colon) | TGI (HOP-92 NSCLC) | TGI (KM12 colon) | TGI (NCI-H226 lung) | TGI (NCI-H23 lung) | TGI (SK-MEL-28 melanoma) | TGI (UO-31 renal)
CCOC(=O)C(NC(=O)CC)(Nc1ccc(S(=O)(=O)Nc2nc(C)cc(C)n2)cc1)C(F)(F)F (configuration not stated) | > 100 µM | > 100 µM | > 100 µM | > 100 µM | > 100 µM | > 100 µM | > 100 µM | > 100 µM | > 100 µM | > 100 µM | > 100 µM
CCC(=O)NC(OCC1(CC)COC1)(C(F)(F)F)C(F)(F)F |  | > 100 µM | > 100 µM | > 100 µM | > 100 µM |  | > 100 µM | > 100 µM | > 100 µM | > 100 µM | > 100 µM
Cc1cc(S(=O)(=O)Nc2nc3ccccc3n2-c2ccccc2)c(S)cc1Cl | > 100 µM | > 100 µM | > 100 µM | > 100 µM | > 100 µM | > 100 µM | > 100 µM | > 100 µM |  | > 100 µM | > 100 µM
CCN1CCCC(Nc2cc(C)nc(/N=C(/N)Nc3ccc(Cl)c(Cl)c3)n2)C1 (configuration not stated) | 2.95 µM | 2.4 µM | 15.3 µM | 2.76 µM | 3.7 µM | 3.33 µM | 3.46 µM |  | 4.81 µM | 3.34 µM | 2.18 µM
COc1nc(OC)nc(-c2cccc(F)c2)n1 | 63 µM | > 100 µM | 26.8 µM | 40.5 µM | 29.3 µM | 38.8 µM | 31.7 µM | 31.1 µM | 29.7 µM | 39.6 µM | 31.8 µM
COC1=CC(=O)c2c(O)c3c(c(O)c2C1=O)C[C@](C)(O)C[C@@H]3O | 46.7 µM | 33.9 µM | 16 µM | 8.94 µM | 15.8 µM | 22.6 µM | 19 µM | 45.6 µM | 6.7 µM | 18.4 µM | 26.9 µM
COc1cc(OC)c2c(O)c(S(=O)(=O)c3ccc(C)cc3)c(=O)oc2c1 | > 100 µM | > 100 µM | > 100 µM | > 100 µM | > 100 µM | > 100 µM | > 100 µM | > 100 µM | > 100 µM | > 100 µM | > 100 µM
CC(C)C(C/C=C1/CC(CO)(COC(=O)C2CCCCC2)OC1=O)C(C)C (configuration not stated) | 26.9 µM | 63.2 µM | 28.8 µM | 33.9 µM | 39.6 µM | 29.8 µM | 55.3 µM | 48.6 µM | 35.9 µM | 35.1 µM | 33.1 µM
COC(=O)C1CCCCNC(=O)CCC(NC(=O)OCc2ccccc2)C(=O)N1 (stereo not drawn) (Cbz-Glu-Lys-OMe; lactam 1-2; configuration not given here) | > 100 µM | > 100 µM | > 100 µM | > 100 µM | > 100 µM | 95.1 µM | > 100 µM | > 100 µM | > 100 µM | > 100 µM | > 100 µM
N=C(N)SCCCN | 66.1 µM | 9.2 µM | 51.1 µM | 30.7 µM | > 100 µM | > 40.6 µM | 59.6 µM | 66 µM | 41.2 µM | > 86 µM | 37.5 µM
Oc1ccc(Cl)cc1C1=N/C(=N\C/N=C2\N=C(c3cc(Cl)ccc3O)CC(c3ccccc3)N2)NC(c2ccccc2)C1 (configuration not stated) | > 100 µM | > 100 µM | > 100 µM | > 100 µM | > 100 µM | > 100 µM | > 100 µM | > 100 µM | > 100 µM | > 100 µM | > 100 µM
C[C@@H]1CC[C@@H](C)[C@](C)(CCc2ccoc2)C/C=C\C=C/1C(=O)O | > 50 µM | > 50 µM |  | > 50 µM | > 50 µM | > 50 µM | > 50 µM | > 50 µM | > 50 µM | > 50 µM | > 50 µM
[N-]=[N+]=NC[C@H]1OCO[C@H](CN=[N+]=[N-])[C@H]2OCCOCCOc3ccccc3OCCOCCO[C@@H]21 | > 100 µM | > 100 µM | > 100 µM | > 100 µM | > 100 µM |  | > 100 µM | > 100 µM | > 100 µM | > 100 µM | > 100 µM
Cc1ccnc(NC(=S)Nc2cccc(Cl)c2)c1 | > 100 µM | > 100 µM | > 100 µM | > 100 µM | > 100 µM |  | > 100 µM |  |  | > 100 µM | > 100 µM
CCOP(=O)(OCC)C1(O)CC(n2cc(C)c(=O)[nH]c2=O)OC1CO (configuration not stated) | > 100 µM |  | > 100 µM | > 100 µM | > 100 µM | > 100 µM | > 100 µM | > 100 µM | > 100 µM | > 100 µM | > 100 µM
COc1cccc(NC(=O)CC(=O)NNCC(=O)Nc2nnc(-c3ccc(N(CCC#N)S(=O)(=O)c4ccccc4)cc3)s2)c1 |  |  |  | > 100 µM | > 100 µM | > 100 µM | > 100 µM | > 100 µM | > 100 µM | > 100 µM | > 100 µM
N#Cc1c(Nc2nc3ccccc3s2)c2ccccc2n2c1nc1ccccc12 | > 100 µM |  | > 100 µM | > 100 µM | > 100 µM | > 100 µM | > 100 µM |  | > 100 µM | > 100 µM | > 100 µM
COC(=O)C1(NC(=O)C(CC(=O)OC(C)(C)C)NC(=O)OC(C)(C)C)CC1 (configuration not stated) (Boc-[ξD](OtBu)-[Ac3c]-OMe) | > 100 µM | > 100 µM | > 100 µM | > 100 µM | > 100 µM |  | > 100 µM | > 100 µM | > 100 µM | > 100 µM | > 100 µM
O=C1CCC2(O)C3Cc4ccc(Oc5nnnn5-c5ccccc5)c5c4C2(CCN3CC2CC2)C1O5 (configuration not stated) | 41.2 µM | 47.4 µM | > 100 µM | > 100 µM | > 100 µM | > 100 µM | > 100 µM |  | > 100 µM | 30.8 µM | 61.1 µM
C=C(Br)CNCC(=C)Br | > 100 µM | > 100 µM | > 100 µM | > 100 µM | > 100 µM |  | > 100 µM | > 100 µM | > 100 µM | > 100 µM | > 100 µM
